Data published in PMC4207412, “Secondary Structural Preferences of Some Antibacterial Cyclooctapeptides in the Presence of Calcium(II)” (International Journal of Medicinal Chemistry, 2012).
Where two headings read alike, the source gives them in different places. Square brackets hold non-standard residues; d marks the D form. Peptide text beside a SMILES is read from it.

Experiments:
[1] = Isothermal titration calorimetry of Ca2+ binding in 10% acetonitrile in water; details: ITC, 30°C, no DPC, peptide 0.15 or 0.30 mM, Ca(ClO4)2 9 to 15 mM in syringe, one-site model, mean of three experiments ± standard error mean
Experimental: (§1) Microcalorimetric titrations of peptides with metal ions were conducted by isothermal titration microcalorimetry (ITC) using a Microcal VP-ITC Instrument (Northampton, MA, USA). Experiments were carried out at 30°C in 10% acetonitrile in water. The peptide concentration was 0.15 or 0.30 mM (1.34 mL sample cell), and the metal ion [Ca(ClO4)2] concentration was varied from 9 to 15 mM in the syringe. Automated titrations were conducted until saturation, up to a Ca^2+/peptide mole ratio of about 12 : 1. Heats of dilution and mixing for each experiment were measured by titrating calcium(II) solution into 10% acetonitrile solution. The effective heat of each peptide and calcium(II) interaction was corrected for dilution and mixing effects by subtracting the enthalpy change derived from the titration of calcium(II) solution into the 10% acetonitrile solution without the peptide. In a similar way, ITC experiments were carried out at 30°C in 10% aqueous acetonitrile containing 10 mM DPC. These heats of bimolecular interactions were obtained by integrating the peak following each injection of calcium(II). The binding isotherms were derived from the raw ITC data following correction for dilution and mixing effects. These isotherms were fitted using the one-site model by a nonlinear least square analysis with Microcal Origin 7.0 software (Microcal Software, Inc., Northampton, MA, USA) to determine the molar enthalpy change for binding, ΔH, and the corresponding binding constant, K b. From these values, the thermodynamic characterization of the interaction at 30°C was determined from the fundamental equations of thermodynamics, ΔG = −RT ln K b and ΔS = (ΔH − ΔG)/T.

[2] = Isothermal titration calorimetry of Ca2+ binding in micellar DPC (10 mM); details: ITC, 30°C, 10% aqueous acetonitrile containing 10 mM micellar DPC; one-site model; mean of three experiments ± standard error mean
Experimental: as §1
In order to mimic the hydrophobic environment of the bacterial membrane that antimicrobial peptides commonly target, the interactions of these cyclopeptides with calcium(II) were also conducted in the presence of micellar dodecylphosphocholine (DPC). […] However, their association is compensated by an increase in entropy (ΔS values range from ca. 42.7 to 66.5 JK^−1 mol^−1). This entropy/enthalpy compensation could be attributed to a greater degree of dehydration of the hydration spheres around the cyclopeptide molecules and calcium ions following complex formation in the hydrophobic micellar DPC environment. However, there is no significant trend in the enthalpy or entropy changes following calcium(II) binding in the presence of micellar DPC.

[3] = tested on: Staphylococcus aureus ATCC 10566; type: cell-based
Experimental: (§2) Microbiological studies were performed on Escherichia coli ATCC 25922 and Staphylococcus aureus ATCC 10566 (American Type Culture Collection (ATCC), Rockville, MD, USA) using carefully standardized conditions. A suspension of the bacteria (in exponential phase of growth) was prepared and then diluted to yield a final concentration of approximately 1 × 10^5 colony forming units (cfu) per milliliter. Stock peptides were dissolved in 9% sucrose solutions containing 5% dimethyl sulfoxide. The 96-well microtiter tray containing the bacterial cultures and peptides was incubated for 18 hrs at 35°C. […] All tests were conducted in triplicate and the reported MIC values were derived from at least three independent experiments.
(§3) COP 4–9 were then designed to include a glutamyl residue to reduce the overall cationic charges on these amphipathic cyclopeptides. […] A lysine residue in COP 4 was sequentially substituted with histidine in COP 5, cysteine in COP 6, and leucine in COP 7. […] As the net positive charges of the cyclopeptide decreased, antimicrobial activity decreased by fourfold (see COP 6). […] The decreasing antimicrobial activities of these cyclopeptides could be attributed to their diminishing cationic character and an inadequate balance of amphipathic residues in their sequences. These structurally similar cyclopeptides (COP 1–9) were subsequently evaluated for calcium(II) binding affinity by ITC and assessed for conformational changes upon calcium(II) binding by circular dichroism (CD).

[4] = tested on: Escherichia coli ATCC 25922; type: cell-based
Experimental: as §2, §3

[5] = Mueller-Hinton microbroth dilution, ca. 1 × 10^5 cfu/mL, 18 hrs at 35°C, visual turbidity, range tested 256 to 2 μg/mL, triplicate, at least three independent experiments

Binding affinity for Ca^2+ K b [1]	Binding affinity for Ca^2+ K b [2]	S. aureus ATCC 10566 MIC ([3]; ATCC 10566, 18 h) [µg/mL]	E. coli ATCC 25922 MIC ([4]; ATCC 25922, 18 h) [µg/mL]	S. aureus ATCC 10566 MIC [3, 5] [µg/mL]	E. coli ATCC 25922 MIC [4, 5] [µg/mL]	Compound
(5.4 ± 1.2) × 10^3 M^−1	(4.1 ± 0.03) × 10^3 M^−1	>256	>256			CC(C)C[C@@H]1NC(=O)[C@@H](CC(C)C)NC(=O)[C@H](CCC(=O)O)NC(=O)[C@@H](CCCCN)NC(=O)[C@H](CCCCN)NC(=O)[C@@H](CCCCN)NC(=O)[C@H](CCC(=O)O)NC(=O)[C@@H](CC(C)C)NC1=O [COP 9] (cyclo(E[dK]K[dK]E[dL]L[dL]))
(7.9 ± 2.8) × 10^3 M^−1	(3.3 ± 0.3) × 10^3 M^−1	16	16			CC(C)C[C@@H]1NC(=O)[C@@H](CC(C)C)NC(=O)[C@H](CCCCN)NC(=O)[C@@H](CCCCN)NC(=O)[C@H](CCCCN)NC(=O)[C@@H](CCCCN)NC(=O)[C@H](CS)NC(=O)[C@@H](CC(C)C)NC1=O [COP 3] (cyclo(C[dK]K[dK]K[dL]L[dL]))
(6.4 ± 2.8) × 10^3 M^−1	(4.9 ± 0.7) × 10^3 M^−1	128	128			CC(C)C[C@@H]1NC(=O)[C@@H](CC(C)C)NC(=O)[C@H](CCC(=O)O)NC(=O)[C@@H](CCCCN)NC(=O)[C@H](CCCCN)NC(=O)[C@@H](CCCCN)NC(=O)[C@H](CS)NC(=O)[C@@H](CC(C)C)NC1=O [COP 6] (cyclo(C[dK]K[dK]E[dL]L[dL]))
(5.3 ± 1.4) × 10^3 M^−1	(5.4 ± 0.6) × 10^3 M^−1	128	32			CC(C)C[C@@H]1NC(=O)[C@@H](CC(C)C)NC(=O)[C@H](CCC(=O)O)NC(=O)[C@@H](CCCCN)NC(=O)[C@H](CCCCN)NC(=O)[C@@H](CCCCN)NC(=O)[C@H](Cc2c[nH]cn2)NC(=O)[C@@H](CC(C)C)NC1=O [COP 5] (cyclo(E[dL]L[dL]H[dK]K[dK]))
(3.4 ± 0.6) × 10^3 M^−1				8	16	CC(C)C[C@@H]1NC(=O)[C@@H](CCCCN)NC(=O)[C@H](CCCCN)NC(=O)[C@@H](CCCCN)NC(=O)[C@H](CCCCN)NC(=O)[C@@H](CC(C)C)NC(=O)[C@H](CC(C)C)NC(=O)[C@@H](CC(C)C)NC1=O [COP 1] (cyclo(K[dK]K[dK]L[dL]L[dL]))
(4.8 ± 1.3) × 10^3 M^−1				8	16	CC(C)C[C@@H]1NC(=O)[C@@H](CC(C)C)NC(=O)[C@H](CC(C)C)NC(=O)[C@@H](CCCCN)NC(=O)[C@H](CCCCN)NC(=O)[C@@H](CCCCN)NC(=O)[C@H](CCCCN)NC(=O)[C@@H](Cc2c[nH]c3ccccc23)NC1=O [COP 2] (cyclo(K[dK]K[dK]L[dL]L[dW]))
(8.0 ± 1.2) × 10^3 M^−1	(4.7 ± 1.0) × 10^3 M^−1	>256	>256			CC(C)C[C@@H]1NC(=O)[C@@H](CC(C)C)NC(=O)[C@H](CC(C)C)NC(=O)[C@@H](CC(C)C)NC(=O)[C@H](CCC(=O)O)NC(=O)[C@@H](CCCCN)NC(=O)[C@H](CCCCN)NC(=O)[C@@H](CCCCN)NC1=O [COP 7] (cyclo(E[dL]L[dL]L[dK]K[dK]))
(4.9 ± 0.3) × 10^3 M^−1	(4.4 ± 0.02) × 10^3 M^−1	>256	>256			CC(C)C[C@@H]1NC(=O)[C@@H](CC(C)C)NC(=O)[C@H](CCC(=O)O)NC(=O)[C@@H](CCCCN)NC(=O)[C@H](Cc2c[nH]cn2)NC(=O)[C@@H](CCCCN)NC(=O)[C@H](Cc2c[nH]cn2)NC(=O)[C@@H](CC(C)C)NC1=O [COP 8] (cyclo(E[dL]L[dL]H[dK]H[dK]))

Compound	Binding affinity for Ca^2+ K b [1]	Binding affinity for Ca^2+ K b [2]	S. aureus ATCC 10566 MIC ([3]; ATCC 10566, 18 h) [µg/mL]	E. coli ATCC 25922 MIC ([4]; ATCC 25922, 18 h) [µg/mL]	S. aureus ATCC 10566 MIC [3, 5] [µg/mL]	E. coli ATCC 25922 MIC [4, 5] [µg/mL]
CC(C)C[C@@H]1NC(=O)[C@@H](CC(C)C)NC(=O)[C@H](CCC(=O)O)NC(=O)[C@@H](CCCCN)NC(=O)[C@H](CCCCN)NC(=O)[C@@H](CCCCN)NC(=O)[C@H](CCCCN)NC(=O)[C@@H](CC(C)C)NC1=O [COP 4] (cyclo(E[dL]L[dL]K[dK]K[dK]))	(3.1 ± 0.7) × 10^3 M^−1	(4.7 ± 1.1) × 10^3 M^−1			32	16
